Laboratory results taken from patent publication US6737383B1, “Herbicidal oxadiazolidines” (priority 1999, dated 2004).

How the values were obtained:
winter barley = assay: Test E winter barley; type: in vivo, Hordeum vulgare; settings: Preemergence; for Barley (winter) plant response rating (0 to 100 scale): Rate 250 g/ha
blackgrass = assay: Test E blackgrass; type: in vivo, Alopecurus myosuroides; settings: Preemergence; for Blackgrass plant response rating (0 to 100 scale): Rate 250 g/ha
sugar beet = assay: Test B pre/postemergence sugar beet; type: in vivo, Beta vulgaris
How it was run: (§1)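 Test chemicals in a non-phytotoxic solvent mixture with surfactant were sprayed preemergence onto planted seeds and postemergence onto plants 2 to 18 cm tall (1- to 4-leaf stage). After twelve to sixteen days in a greenhouse, injury was visually rated against untreated controls from 0 (no effect) to 10 (complete control).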

winter wheat [1] = assay: Test E winter wheat; type: in vivo, Triticum aestivum; settings: Postemergence
How it was run: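 For postemergence, application to 1- to 4-leaf plants growing in a 60:40 sandy loam–potting mix substrate. Formulation: non-phytotoxic solvent mixture plus surfactant. Untreated controls served as the reference for the visual rating after ~21–28 days.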

wild oat = assay: Test E wild oat; type: in vivo, Avena fatua; settings: Preemergence; for Wild oat plant response rating (0 to 100 scale): Rate 250 g/ha
winter wheat [2] = assay: Test E winter wheat; type: in vivo, Triticum aestivum; settings: Preemergence; for Wheat (winter) plant response rating (0 to 100 scale): Rate 250 g/ha
rape = assay: Test B pre/postemergence rape; type: in vivo, Brassica napus
How it was run: as §1

bamyardgrass = assay: Test B flood test barnyardgrass; type: in vivo, Echinochloa crus-galli
How it was run: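 Each value is a visual injury score relative to controls, with 10 meaning complete control and 0 no effect. Evaluation took place twelve to sixteen days after the 2-leaf-stage plants were treated and kept in the greenhouse.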

Italian ryegrass = assay: Test E Italian ryegrass; type: in vivo, Lolium multiflorum; settings: Preemergence; for I. Ryegrass plant response rating (0 to 100 scale): Rate 250 g/ha
green foxtail = assay: Test E green foxtail; type: in vivo, Setaria viridis; settings: Preemergence; for Green foxtail plant response rating (0 to 100 scale): Rate 250 g/ha
cocklebur = assay: Test B pre/postemergence cocklebur; type: in vivo, Xanthium strumarium
How it was run: as §1

[3] = Rate 62 g/ha, 0 to 100 scale, 0 no effect, 100 complete control
[4] = Rate 125 g/ha, 0 to 100 scale (0 no effect, 100 complete control)
[5] = Preemergence, Rate 62 g/ha, scale of 0 to 10 where 0 is no effect and 10 is complete control
[6] = Preemergence, Rate 125 g/ha, 0 is no effect, 10 is complete control
[7] = Preemergence, Rate 250 g/ha, scale 0 to 10, 0 is no effect, 10 is complete control
[8] = Preemergence, Rate 500 g/ha, scale of 0 to 10 where 0 is no effect and 10 is complete control
[9] = Rate 62 g/ha, Postemergence, scale of 0 to 10 where 0 is no effect and 10 is complete control
[10] = Rate 125 g/ha, Postemergence, scale 0 to 10
[11] = Rate 500 g/ha, Postemergence, scale 0 to 10
[12] = Rate 500 g/ha, 0 to 100 scale where 0 is no effect and 100 is complete control
[13] = Rate 1000 g/ha, 0 to 100 scale, 0 no effect, 100 complete control
[14] = Preemergence, Rate 250 g/ha, scale of 0 to 10 where 0 is no effect and 10 is complete control
[15] = Rate 125 g/ha, Preemergence, scale of 0 to 10 where 0 is no effect and 10 is complete control
[16] = Rate 500 g/ha, Postemergence, scale 0 to 10, 0 no effect, 10 complete control

For `C=C(C)CCn1c(=O)on(C(=O)N(c2ccc(F)cc2)C(C)C)c1=O` [Compound 199], the “Plant response rating, Barley (winter)” value (winter barley; [3]) was 70, the “Plant response rating, Barley (winter)” value (winter barley; [4]) was 70 and the “Barley (winter) plant response rating (0 to 100 scale)” value (winter barley) was 70. For the same molecule, the “Plant response rating, Blackgrass” value (blackgrass; [3]) was 60, the “Plant response rating, Blackgrass” value (blackgrass; [4]) was 65 and the “Blackgrass plant response rating (0 to 100 scale)” value (blackgrass) was 60. For the same molecule, the “Sugarbeets plant response rating” value (sugar beet; [5]) was 4, the “Sugarbeets plant response rating (0 to 10 scale)” value (sugar beet; [6]) was 5 and the “Sugarbeets plant response rating” value (sugar beet; [7]) was 5. The “Plant response rating, Sugarbeets” value (sugar beet; [8]) was 6, the “Sugarbeets plant response rating” value (sugar beet; [9]) was 0 and the “Sugarbeets plant response rating” value (sugar beet; [10]) was 0. For the same molecule, the “Plant response rating (0 to 10; 0 is no effect, 10 is complete control), Sugarbeets” value (sugar beet; Rate 250 g/ha, Postemergence) was 0, the “Sugarbeets plant response rating” value (sugar beet; [11]) was 2 and the “Plant response rating, Wheat (winter)” value (winter wheat [1]; Rate 62 g/ha, 0 to 100 scale) was 50. For the same molecule, the “Plant response rating, Wheat (winter)” value (winter wheat [1]; Rate 125 g/ha, 0 to 100 scale) was 55, the “Plant response rating, Wild oat” value (wild oat; [3]) was 60 and the “Plant response rating, Wild oat” value (wild oat; [4]) was 70. For the same molecule, the “Wild oat plant response rating (0 to 100 scale)” value (wild oat) was 80, the “Plant response rating, Wheat (winter)” value (winter wheat [2]; [3]) was 60 and the “Plant response rating, Wheat (winter)” value (winter wheat [2]; [4]) was 70. For the same molecule, the “Wheat (winter) plant response rating (0 to 100 scale)” value (winter wheat [2]) was 50, the “Rape plant response rating” value (rape; [5]) was 0 and the “Rape plant response rating (0 to 10 scale)” value (rape; [6]) was 0. The “Rape plant response rating” value (rape; [7]) was 0, the “Plant response rating, Rape” value (rape; [8]) was 0 and the “Rape plant response rating” value (rape; [9]) was 0. For the same molecule, the “Rape plant response rating” value (rape; [10]) was 0, the “Plant response rating (0 to 10; 0 is no effect, 10 is complete control), Rape” value (rape; Rate 250 g/ha, Postemergence) was 0 and the “Rape plant response rating” value (rape; [11]) was 0. The “Barnyardgrass plant response rating” value (bamyardgrass; Rate 62 g/ha, Postemergence section, flood test species, scale of 0 to 10 where 0 is no effect and 10 is complete control) was 0, the “Barnyardgrass plant response rating” value (bamyardgrass; Rate 125 g/ha, listed under Postemergence (flood test species), scale 0 to 10) was 0 and the “Plant response rating (0 to 10; 0 is no effect, 10 is complete control), Barnyardgrass” value (bamyardgrass; Rate 250 g/ha, Postemergence section, flood test species) was 0. For the same molecule, the “Barnyardgrass plant response rating” value (bamyardgrass; Rate 500 g/ha, listed under Postemergence (flood test species), scale 0 to 10) was 8, the “Plant response rating, I. Ryegrass” value (Italian ryegrass; [3]) was 70 and the “Plant response rating, I. Ryegrass” value (Italian ryegrass; [4]) was 60. The “I. Ryegrass plant response rating (0 to 100 scale)” value (Italian ryegrass) was 70, the “Plant response rating, Green foxtail” value (green foxtail; [3]) was 100 and the “Plant response rating, Green foxtail” value (green foxtail; [4]) was 100. For the same molecule, the “Green foxtail plant response rating (0 to 100 scale)” value (green foxtail) was 100, the “Cocklebur plant response rating” value (cocklebur; [5]) was 0 and the “Cocklebur plant response rating (0 to 10 scale)” value (cocklebur; [6]) was 0. The “Cocklebur plant response rating” value (cocklebur; [7]) was 0, the “Plant response rating, Cocklebur” value (cocklebur; [8]) was 0 and the “Cocklebur plant response rating” value (cocklebur; [9]) was 0. For the same molecule, the “Cocklebur plant response rating” value (cocklebur; [10]) was 0, the “Plant response rating (0 to 10; 0 is no effect, 10 is complete control), Cocklebur” value (cocklebur; Rate 250 g/ha, Postemergence) was 0 and the “Cocklebur plant response rating” value (cocklebur; [11]) was 3.
For `Cc1nc(C)c(Cn2c(=O)on(C(=O)N(c3ccc(F)cc3)C(C)C)c2=O)s1` [Compound 232], the “Barley (winter) plant response rating (0 to 100 scale)” value (winter barley) was 20, the “Plant response rating, Barley (winter)” value (winter barley; [12]) was 20 and the “Plant response rating, Barley (winter)” value (winter barley; [13]) was 55. For the same molecule, the “Blackgrass plant response rating (0 to 100 scale)” value (blackgrass) was 30, the “Plant response rating, Blackgrass” value (blackgrass; [12]) was 50 and the “Plant response rating, Blackgrass” value (blackgrass; [13]) was 50. The “Sugarbeets plant response rating” value (sugar beet; [5]) was 0, the “Sugarbeets plant response rating” value (sugar beet; [14]) was 4 and the “Plant response rating, Sugarbeets” value (sugar beet; [8]) was 4. For the same molecule, the “Sugarbeets plant response rating” value (sugar beet; [9]) was 0, the “Sugarbeets plant response rating” value (sugar beet; [10]) was 2 and the “Sugarbeets plant response rating” value (sugar beet; [15]) was 0. The “Plant response rating (0 to 10; 0 is no effect, 10 is complete control), Sugarbeets” value (sugar beet; Rate 250 g/ha, Postemergence) was 2, the “Sugarbeets plant response rating” value (sugar beet; [16]) was 3 and the “Plant response rating, Wheat (winter)” value (winter wheat [1]; Rate 1000 g/ha, 0 to 100 scale where 0 is no effect and 100 is complete control) was 60. For the same molecule, the “Wheat (winter) plant response rating” value (winter wheat [1]; Rate 250 g/ha, 0 to 100 scale where 0 is no effect and 100 is complete control) was 40, the “Plant response rating, Wheat (winter)” value (winter wheat [1]; Rate 500 g/ha, 0 to 100 scale, 0 is no effect, 100 is complete control) was 50 and the “Wild oat plant response rating (0 to 100 scale)” value (wild oat) was 55. The “Plant response rating, Wild oat” value (wild oat; [12]) was 50, the “Plant response rating, Wild oat” value (wild oat; [13]) was 60 and the “Wheat (winter) plant response rating (0 to 100 scale)” value (winter wheat [2]) was 30. For the same molecule, the “Plant response rating, Wheat (winter)” value (winter wheat [2]; [12]) was 30, the “Plant response rating, Wheat (winter)” value (winter wheat [2]; [13]) was 50 and the “Rape plant response rating” value (rape; [5]) was 0. The “Rape plant response rating” value (rape; [14]) was 0, the “Plant response rating, Rape” value (rape; [8]) was 0 and the “Rape plant response rating” value (rape; [9]) was 0. For the same molecule, the “Rape plant response rating” value (rape; [10]) was 2, the “Rape plant response rating” value (rape; [15]) was 0 and the “Plant response rating (0 to 10; 0 is no effect, 10 is complete control), Rape” value (rape; Rate 250 g/ha, Postemergence) was 2. The “Rape plant response rating” value (rape; [16]) was 2, the “Barnyardgrass plant response rating” value (bamyardgrass; Rate 62 g/ha, headed Pre-emergence (flood test species), scale 0 to 10 (0 no effect, 10 complete control)) was 0 and the “Barnyardgrass plant response rating” value (bamyardgrass; Rate 125 g/ha, Pre-emergence, flood test species, scale 0 to 10 where 0 is no effect and 10 is complete control) was 0. The “Barnyardgrass plant response rating” value (bamyardgrass; Rate 250 g/ha, Pre-emergence, flood-test species, scale 0 to 10, 0 is no effect, 10 is complete control) was 0, the “Barnyardgrass plant response rating” value (bamyardgrass; Rate 500 g/ha, Pre-emergence, flood test species, scale 0 to 10 (0 no effect, 10 complete control)) was 0 and the “I. Ryegrass plant response rating (0 to 100 scale)” value (Italian ryegrass) was 40. The “Plant response rating, I. Ryegrass” value (Italian ryegrass; [12]) was 50, the “Plant response rating, I. Ryegrass” value (Italian ryegrass; [13]) was 55 and the “Green foxtail plant response rating (0 to 100 scale)” value (green foxtail) was 95. For the same molecule, the “Plant response rating, Green foxtail” value (green foxtail; [12]) was 90, the “Plant response rating, Green foxtail” value (green foxtail; [13]) was 100 and the “Cocklebur plant response rating” value (cocklebur; [5]) was 0. The “Cocklebur plant response rating” value (cocklebur; [14]) was 0, the “Plant response rating, Cocklebur” value (cocklebur; [8]) was 0 and the “Cocklebur plant response rating” value (cocklebur; [9]) was 0. The “Cocklebur plant response rating” value (cocklebur; [10]) was 2, the “Cocklebur plant response rating” value (cocklebur; [15]) was 0 and the “Plant response rating (0 to 10; 0 is no effect, 10 is complete control), Cocklebur” value (cocklebur; Rate 250 g/ha, Postemergence) was 2. The “Cocklebur plant response rating” value (cocklebur; [16]) was 4.
